Earlier results, collected in patent US7985768B2, “Compounds as cannabinoid receptor ligands” (priority 2006, dated 2011).

Experiments:
rodent models of pain = details: neuropathic, incisional, chronic and acute inflammatory pain
[1] = at fully efficacious doses
microglial activation = details: in vitro
mice = details: model for post-menopausal osteoporosis
[2] = tested on: apolipoprotein E knockout mice
rat = rat formalin model of persistent pain
[3] = tested on: CB1 receptor knockout mice
[4] = tested on: CB2 receptor knockout mice
animal models of pain = details: models of acute thermal, persistent, inflammatory and neuropathic pain

## COc1ccc2c(c1)c(CCN1CCOCC1)c(C)n2C(=O)c1cccc(Cl)c1Cl [GW405833]
Rodent models of pain
  efficacy in pain models: efficacious
[1]
  CB1 receptor-mediated CNS side effects: devoid of typical CB1 receptor-mediated CNS side effects

## SR144528
Microglial activation; antagonist against JWH-133
  effect on the actions of JWH-133: blocked
osteoclast
  effect on osteoclast activity: inhibit osteoclast activity
mice
  effect on ovariectomy-induced bone loss: reverse ovariectomy-induced bone loss
[2]; antagonist against THC
  effect on the actions of THC on atherosclerotic lesions: inhibited

## CCCCCCC(C)(C)c1cc(OC)c([C@@H]2C=C(CO)[C@@H]3C[C@H]2C3(C)C)c(OC)c1 [HU-308]
rat
  antinociceptive response: elicits an antinociceptive response

## (−)-Δ^9-Tetrahydrocannabinol [Δ^9-THC]
[3]
  analgesic efficacy: retains some analgesic efficacy
[4]
  immunosuppressive effects: absent
[2]; low doses
  effect on progression of atherosclerotic lesions: slowed the progression of atherosclerotic lesions

## CCCC(C)(C)c1ccc2c(c1)OC(C)(C)[C@@H]1CC=C(C)C[C@@H]21 [JWH-133]
Microglial activation
  effect on β-amyloid-induced microglial activation and neurotoxicity: abrogated

## CN1CCCCC1Cn1cc(C(=O)c2cc([N+](=O)[O-])ccc2I)c2ccccc21 (stereo not shown) [AM-1241]
Animal models of pain
  analgesic efficacy: robust analgesic efficacy
[1]
  CB1 receptor-mediated CNS side effects: devoid of typical CB1 receptor-mediated CNS side effects
